Experiment [1] deals with iCell endothelial cells (human iPSC-derived ECs). Kind of experiment: High-content imaging cytotoxicity in iCell endothelial cells, 24 h. Format: cell-based. The note with it: Homo sapiens, Endothelial cell, 24 hr; for viability at 0.1 µM / activity at 0.1 µM: 0.10 µM. The method in brief: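 Human iPSC-derived endothelial cells (passages 1–5) were grown to a fibronectin-coated monolayer, then exposed 24 h at 37 °C with 0.5% DMSO vehicle. Staining was Hoechst 33342, MitoTracker Orange and calcein AM, read by high-content imaging. Point of departure came from 4-parameter logistic fits, with a 1-SD vehicle cutoff and 100 µM as the top concentration.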

The next experiment deals with HUVECs. The experiment in a line: Tube formation (tubulogenesis) assay in HUVECs, 18 h. Format: cell-based, human. Particulars: Homo sapiens, HUVEC, 18 h; for activity at 0.1 µM: 0.10 µM. The method in brief: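 HUVECs (passage 1–5) seeded on reduced-growth-factor basement membrane and exposed to compounds overnight at 37°C, 5% CO2, in 2× maintenance medium with 12.5 ng/mL VEGF; 0.5% DMSO vehicle. Calcein AM-stained tube networks imaged and analysed; vehicle-normalized readouts fit to four-parameter logistic, POD set at one SD of vehicle means.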

Where [2] appears, read: iPSC-EC, 0.00 µM control = 100.00, read-out: endo.cyto.24hr.
Where [3] appears, read: iPSC-EC, 0.00 µM control = 100.00, read-out: endo.mito.24hr.
Setting [4] is: iPSC-EC, 0.00 µM control = 100.00, read-out: endo.mitoint.24hr.
Where [5] appears, read: iPSC-EC, 0.00 µM control = 100.00, read-out: endo.nma.24hr.
Setting [6] is: iPSC-EC, 0.00 µM control = 100.00, read-out: endo.tc.24hrs.
Where [7] appears, read: HUVECs, 0.00 µM = 100.00, read-out: huvec.mtl.18hr.
[8] abbreviates: HUVECs, 0.00 µM = 100.00, read-out: huvec.tlps.18hr.
Setting [9] is: HUVECs, 0.00 µM = 100.00, read-out: huvec.tta.18hr.
Setting [10] is: HUVECs, 0.00 µM = 100.00, read-out: huvec.ttl.18hr.
The mark [11] stands for this setting: endothelial cells (endo), cyto, read-out: POD endo.cyto.24hr.
The mark [12] stands for this setting: endothelial cells (endo), mito, read-out: POD endo.mito.24hr.
The mark [13] stands for this setting: endothelial cells (endo), mitoint, read-out: POD endo.mitoint.24hr.
[14] abbreviates: endothelial cells (endo), nma, read-out: POD endo.nma.24hr.
Setting [15] is: endothelial cells (endo), tc, read-out: POD endo.tc.24hr.
Where [16] appears, read: tube formation mtl, read-out: POD huvec.mtl.18hr.
[17] abbreviates: tube formation tlps, read-out: POD huvec.tlps.18hr.
Where [18] appears, read: tube formation tta, read-out: POD huvec.tta.18hr.
[19] abbreviates: tube formation ttl, read-out: POD huvec.ttl.18hr.

Where a name gives a salt, the structure may show the parent alone. Read-outs that look alike come from different tables or passages of the source.

As to `O=S(=O)(O)Oc1ccc(-c2cccc(Cl)c2)cc1Cl` [4-yl PCB 11 sulfate], the viability at 0.01 µM in experiment [1] (setting [2]) and in experiment [1] (setting [6]) was 96.1% each time. Moreover, the activity at 0.01 µM in experiment [1] (setting [3]) came to 96.2%; in experiment [1] (setting [4]) it was 99.7%; in experiment [1] (setting [5]), 103%; with HUVECs (setting [7]) it was 96.8%; with HUVECs (setting [8]), 110%; in the experiment with HUVECs (setting [9]), 98.3%. Also, in the experiment on HUVECs (setting [10]), the activity at 0.01 µM came to 87.1%. In addition, the viability at 0.1 µM in experiment [1] (setting [2]) and in experiment [1] (setting [6]) was 102% in each case. For the same compound, the activity at 0.1 µM in experiment [1] (setting [3]) was 101%; in experiment [1] (setting [4]), 90.5%; in experiment [1] (setting [5]), 102%; with HUVECs (setting [7]) it was 112%; with HUVECs (setting [8]), 133%; in the experiment with HUVECs (setting [9]), 109%. For the same compound, in the experiment with HUVECs (setting [10]), the activity at 0.1 µM amounted to 98.7%. Moreover, the viability at 1 µM in experiment [1] (setting [2]) and in experiment [1] (setting [6]) was 98% in each case. In addition, the activity at 1 µM was determined as 97.8% in experiment [1] (setting [3]); 90.8% in experiment [1] (setting [4]); 103% in experiment [1] (setting [5]); 108% in the experiment on HUVECs (setting [7]); 110% in the experiment with HUVECs (setting [8]); 123% in the experiment on HUVECs (setting [9]). Also, in the experiment on HUVECs (setting [10]), the activity at 1 µM was determined as 113%. In addition, the viability at 10 µM in experiment [1] (setting [2]) and in experiment [1] (setting [6]) was 104% in each case. In addition, the activity at 10 µM in experiment [1] (setting [3]) is 104%; in experiment [1] (setting [4]) it was 87.3%; in experiment [1] (setting [5]) it was 98.8%; in the experiment on HUVECs (setting [7]), 95%; with HUVECs (setting [8]) it was 103%; with HUVECs (setting [9]), 84.6%. Also, the activity at 10 µM in the experiment on HUVECs (setting [10]) turned out to be 77%. Also, the viability at 100 µM in experiment [1] (setting [2]) and in experiment [1] (setting [6]) was 98.5% each time. Besides, the activity at 100 µM is 98.6% in experiment [1] (setting [3]); 84.2% in experiment [1] (setting [4]); 99.3% in experiment [1] (setting [5]); 52.2% in the experiment with HUVECs (setting [7]); 35.8% with HUVECs (setting [8]); 50.9% in the experiment with HUVECs (setting [9]). Moreover, the activity at 100 µM in the experiment with HUVECs (setting [10]) was found to be 56.1%. Besides, the minimal effective concentration amounted to 100 µM in experiment [1] (iPSC-EC, top concentration 100.00 µM, read-out: endo.cyto.24hr POD); 100 µM in experiment [1] (iPSC-EC, top concentration 100.00 µM, read-out: endo.mito.24hr POD); 100 µM in experiment [1] (iPSC-EC, top concentration 100.00 µM, read-out: endo.mitoint.24hr POD); 100 µM in experiment [1] (iPSC-EC, top concentration 100.00 µM, read-out: endo.nma.24hr POD); 100 µM in experiment [1] (iPSC-EC, top concentration 100.00 µM, read-out: endo.tc.24hrs POD); 14.3 µM in the experiment on HUVECs (HUVECs, top concentration 100.00 µM, read-out: huvec.mtl.18hr POD). Also, the minimal effective concentration with HUVECs (HUVECs, top concentration 100.00 µM, read-out: huvec.tlps.18hr POD) came to 27.2 µM; with HUVECs (HUVECs, top concentration 100.00 µM, read-out: huvec.tta.18hr POD) it was 100 µM; in the experiment with HUVECs (HUVECs, top concentration 100.00 µM, read-out: huvec.ttl.18hr POD), 100 µM.
As for `Oc1ccc(-c2ccc(Cl)cc2)cc1` [4'-OH-PCB 3], the minimal effective concentration in experiment [1] (setting [11]) was 41.1 µM; in experiment [1] (setting [12]) it was 41.1 µM; in experiment [1] (setting [13]) it was 100 µM; in experiment [1] (setting [14]) it was 100 µM; in experiment [1] (setting [15]), 52 µM; in the experiment on HUVECs (setting [16]), 1.21 µM. The minimal effective concentration in the experiment with HUVECs (setting [17]) came out at 0.51 µM; in the experiment on HUVECs (setting [18]), 5.36 µM; in the experiment on HUVECs (setting [19]), 5.16 µM.
Regarding `Oc1cccc(-c2ccc(Cl)cc2)c1` [3'-OH-PCB 3], the minimal effective concentration was 45.8 µM in experiment [1] (setting [11]); 45.8 µM in experiment [1] (setting [12]); 100 µM in experiment [1] (setting [13]); 9.75 µM in experiment [1] (setting [14]); 53.2 µM in experiment [1] (setting [15]); 1.14 µM with HUVECs (setting [16]). For the same compound, the minimal effective concentration is 1.01 µM with HUVECs (setting [17]), 3.65 µM with HUVECs (setting [18]) and 3.26 µM in the experiment with HUVECs (setting [19]).

Values taken from article PMC7377239, “Cardiovascular Effects of Polychlorinated Biphenyls and Their Major Metabolites” (Environmental Health Perspectives, 2020).
